{
  "source": "patent US20030139616A1",
  "about": "“Method of searching for arteriosclerosis inhibitors and shrinkers” (priority 2000, published 2003)",
  "key": {"[1]": {"tested_on": "foam mouse macrophages", "assay": "Defoaming-promoting activity (cholesterol efflux into medium)", "format": "cell-based", "conditions": "for Amount of cholesterol transferred (control group = 100%) Mean: method of Example 4; for action on transfer of cholesterol: result in words, summary of Tables 3 and 7", "protocol": "The activity of the test compound on defoaming was measured by treating the foam mouse macrophages prepared in Example 1, with RPMI 1640-25 mM HEPES medium (pH 7) containing the test compound for 24 hours, followed by adding 20% fetal bovine serum (JRH Ltd.), and determining the radioactivity released into the medium after further culture for 24 hours. The defoaming-promoting activity of a group treated with the compound was calculated as a ratio (%) of the radioactivity corrected by a blank value to that of a control group. The blank value used was the radioactivity in the absence of the test compound and 20% fetal bovine serum. The defoaming-promoting activities of the control group and the group treated with the compound were corrected by the amount of cell protein measured by the BCA assay kit from Pierce Ltd. after the cells were solubilized with 0.1 N NaOH/0.1% SDS solution.\nThe promoting action of Compound A on defoaming was measured by using the method described in Example 4."}, "[2]": {"tested_on": "foamed macrophages", "assay": "Intracellular cholesteryl ester content by enzyme method", "format": "cell-based, mouse", "conditions": "for Content of intracellular cholesteryl esters (control group = 100%) Mean: method of Example 5 (enzyme method); for action on reduction of the cholesteryl ester content: result in words, summary of Tables 4 and 8", "protocol": "The mouse peritoneal macrophages prepared in Example 1 were cultured for 24 hours in an RPMI 1640-25 mM HEPES medium (pH 7) containing β-VLDL (150 μg/ml) and a conjugate of 0.2 mM oleic acid/0/2% bovine serum albumin to obtain foam cells in which cholesteryl esters were accumulated. These foamed macrophages were treated with an RPMI 1640-25 mM HEPES medium (pH 7) containing the test compound for 24 hours, and then the whole lipid was extracted. The lipid thus extracted was dissolved in isopropanol and measured for the amounts of the whole cholesterol and free cholesterol by the enzyme method (E-Test Wako, Wako Ltd.), and, from the difference therebetween, the amount of cholesteryl esters was calculated. The amounts of cell protein in a control group and a group treated with the compound were measured with a BCA assay kit from Pierce Ltd. after the cells were solubilized with 0.1 N NaOH/0.1% SDS solution, and assuming that the amount of cholesteryl esters (μg/mg cell protein) in the cells in the control group was 100%, the amount of cholesteryl esters (%) in the group treated with the compound was calculated.\nThe action of Compound A on reduction of the content of intracellular cholesteryl esters was measured by using the method described in Example 5."}, "[3]": {"tested_on": "Mouse peritoneal macrophages", "assay": "Inhibitory action on synthesis of intracellular cholesteryl esters", "format": "cell-based", "conditions": "for Content of intracellular cholesteryl esters (control group = 100%) TLC method Mean / Content of intracellular cholesteryl esters (control group = 100%) Methanol method Mean: 24 hours, 25-hydroxycholesterol", "protocol": "Mouse peritoneal macrophages prepared in the method described in Example 1 were cultured for 24 hours in an RPMI 1640-25 mM HEPES medium (pH 7) containing 1% fetal bovine serum and [1,2,6,7-^3H]-cholesterol (37 Kbq/ml, NEN Ltd.). The macrophages were labeled with ^3H-cholesterol and then cultured for 24 hours in an RPMI 1640-25 mM HEPES medium (pH 7) containing 2-[6-chloro-4-(2-methylphenyl)-2-oxo-2H-chromene-3-yl]-N-(2,6-dimethoxyphenyl) acetamide (referred to hereinafter as Compound A), 25-hydroxycholesterol (5 μg/ml, Sigma) and 0.2 mM oleic acid/0.2% bovine serum albumin, and the content of synthesized intracellular cholesteryl esters was quantified by the TLC fractionation method or the aqueous methanol extraction method (hereinafter also referred to as the methanol method). The measurement by the TLC fractionation method was conducted by extracting the whole intracellular lipid with a hexane-isopropanol mixture (3:2, v/v) and then fractionating the lipid in TLC under the same conditions as in Example 1 to quantify the intracellular cholesteryl esters. The measurement by the aqueous methanol extraction method was conducted by treating the cells with 80% methanol for 10 minutes, then solubilizing the cells with 0.1 N NaOH/0.1% SDS solution, and measuring their radioactivity. Each value of radioactivity was corrected by the amount of cell proteins measured with a BCA assay kit (Pierce Ltd.) after the cells were solubilized with 0.1 N NaOH/0.1% SDS solution, and assuming that the radioactivity (dpm/mg cell protein) of the control group in the absence of the test compound was 100%, the content of intracellular cholesteryl esters (%) in the group treated with Compound A was calculated."}, "[4]": {"tested_on": "Foam cells derived from mouse peritoneal macrophages", "assay": "Promoting action on decomposition of intracellular cholesteryl esters", "format": "cell-based", "conditions": "for Content of intracellular cholesteryl esters (control group = 100%) TLC method Mean / Content of intracellular cholesteryl esters (control group = 100%) Methanol method Mean: 48 hours", "protocol": "Foam cells derived from mouse peritoneal macrophages, prepared in the method described in Example 1, were cultured for 48 hours in an RPMI 1640-25 mM HEPES medium (pH 7) containing Compound A, and a reduction in the intracellular cholesteryl ester content was quantified by a TLC fractionation method or an aqueous methanol extraction method. The measurement by the TLC fractionation method was conducted by extracting the whole intracellular lipid with a hexane-isopropanol mixture (3:2, v/v) and then fractionating the lipid by TLC under the same conditions as in Example 1 to quantify the intracellular cholesteryl esters. The measurement by the aqueous methanol extraction method was conducted by treating the cells with 80% methanol for 10 minutes, then solubilizing the cells with 0.1 N NaOH/0.1% SDS solution, and measuring their radioactivity. Each value of radioactivity was corrected by the amount of cell proteins measured with a BCA assay kit (Pierce Ltd.) after the cells were solubilized with 0.1 N NaOH/0.1% SDS solution, and assuming that the radioactivity (dpm/mg cell protein) of the control group in the absence of the test compound was 100%, the content of intracellular cholesteryl esters (%) in the group treated with Compound A was calculated."}, "[5]": {"tested_on": "foam macrophages", "assay": "Measurement of regulatory activity on intracellular cholesteryl ester cycle (aqueous methanol extraction)", "format": "cell-based, mouse", "protocol": "According to the method of Hakamada et al. (“Jikken Igaku (Experimental Medicine), Extra Issue”, vol. 14, No. 12, Circulation Study Protocol, pp. 49-52 (1996)), peritoneal macrophages were prepared from C57BL6J mice stimulated with thioglycolate, and then cultured for 24 hours in RPMI 1640-25 mM HEPES (pH 7) containing β-very low-density lipoprotein (β-VLDL, 150 μg cholesterol/ml) prepared according to the method of Ishii et al. (Arterioscler. Thromb., 12, 1139-1145, 1992), a conjugate of 0.2 mM oleic acid/0.2% bovine serum albumin, and [1,2,6,7-^3H]-cholesterol (NEN, 37 KBq/ml) to obtain foam cells in which cholesteryl esters were accumulated. […] A part of the extract was fractionated by the TLC method (Merck Silica Gel Plate No. 5582, developing solvent: petroleum ether/diethyl ether/acetic acid=9:1:0.1), free cholesterol and cholesteryl ester fractions were cut off, a liquid scintillator was added, and the radioactivity thereof was measured.\nIn an RPMI 1640-HEPES medium (pH 7) containing the test compound, the foam macrophages prepared in Example 1 were cultured for 24 hours. The cells were extracted with 80% aqueous methanol for 10 minutes and then solubilized with 0.1 NaOH/0.1% SDS solution, a liquid scintillator was added to a portion thereof, and its radioactivity was measured. […]"}},
  "data": [
    {"smiles": "COc1cccc(OC)c1NC(=O)Cc1c(-c2ccccc2C)c2cc(Cl)ccc2oc1=O", "note": "[Compound A, 2-[6-chloro-4-(2-methylphenyl)-2-oxo-2H-chromene-3-yl]-N-(2,6-dimethoxyphenyl) acetamide]", "values": [
      {"measurement": "Amount of cholesterol transferred (control group = 100%) Mean", "setting": "[1]; 0.01 mM", "result": 142, "unit": "%"},
      {"measurement": "Amount of cholesterol transferred (control group = 100%) Mean", "setting": "[1]; 0.1 mM", "result": 191, "unit": "%"},
      {"measurement": "action on transfer of cholesterol", "setting": "[1]", "result": "strong action"},
      {"measurement": "Content of intracellular cholesteryl esters (control group = 100%) Mean", "setting": "[2]; 0.01 mM", "result": 63, "unit": "%"},
      {"measurement": "Content of intracellular cholesteryl esters (control group = 100%) Mean", "setting": "[2]; 0.1 mM", "result": 48, "unit": "%"},
      {"measurement": "action on reduction of the cholesteryl ester content", "setting": "[2]", "result": "strong action"},
      {"measurement": "Content of intracellular cholesteryl esters (control group = 100%) TLC method Mean", "setting": "[3]; 0.01 mM", "result": 44, "unit": "%"},
      {"measurement": "Content of intracellular cholesteryl esters (control group = 100%) Methanol method Mean", "setting": "[3]; 0.01 mM", "result": 41, "unit": "%"},
      {"measurement": "Content of intracellular cholesteryl esters (control group = 100%) TLC method Mean", "setting": "[3]; 0.03 mM", "result": 16, "unit": "%"},
      {"measurement": "Content of intracellular cholesteryl esters (control group = 100%) Methanol method Mean", "setting": "[3]; 0.03 mM", "result": 19, "unit": "%"},
      {"measurement": "Content of intracellular cholesteryl esters (control group = 100%) TLC method Mean", "setting": "[3]; 0.1 mM", "result": 5, "unit": "%"},
      {"measurement": "Content of intracellular cholesteryl esters (control group = 100%) Methanol method Mean", "setting": "[3]; 0.1 mM", "result": 9, "unit": "%"},
      {"measurement": "inhibitory activity on synthesis of cholesteryl esters", "setting": "[3]; result in words, summary of Table 5", "result": "potent inhibitory activity"},
      {"measurement": "Content of intracellular cholesteryl esters (control group = 100%) TLC method Mean", "setting": "[4]; 0.01 mM", "result": 71, "unit": "%"},
      {"measurement": "Content of intracellular cholesteryl esters (control group = 100%) Methanol method Mean", "setting": "[4]; 0.01 mM", "result": 74, "unit": "%"},
      {"measurement": "Content of intracellular cholesteryl esters (control group = 100%) TLC method Mean", "setting": "[4]; 0.1 mM", "result": 8, "unit": "%"},
      {"measurement": "Content of intracellular cholesteryl esters (control group = 100%) Methanol method Mean", "setting": "[4]; 0.1 mM", "result": 14, "unit": "%"},
      {"measurement": "promoting activity on degradation of cholesteryl esters", "setting": "[4]; result in words, summary of Table 6", "result": "strong promoting activity"}
    ]},
    {"smiles": "CCCC(=O)Nc1ncnc2c1ncn2[C@@H]1O[C@@H]2COP(=O)(O)O[C@H]2[C@H]1OC(=O)CCC", "note": "[dbc-AMP, Dibutyryl cyclic AMP, reference compound]", "values": [
      {"measurement": "Cholesteryl ester content (%)", "setting": "[5]; 100 μM, 24 hours, 80% aqueous methanol extraction, control = 100%", "result": "60 ± 12", "unit": "p < 0.01 %"},
      {"measurement": "cholesteryl ester cycle-regulating action", "setting": "[5]; result in words, summary of Table 2", "result": "potent cholesteryl ester-hydrolytic activity"},
      {"measurement": "Amount of cholesterol efflux (%)", "setting": "[1]; 100 μM, 24 hours then 20% fetal bovine serum 24 hours, control = 100%", "result": "160 ± 15", "unit": "p < 0.01 %"},
      {"measurement": "action on transfer of cholesterol", "setting": "[1]", "result": "exerts an action"},
      {"measurement": "Cholesteryl ester content (%)", "setting": "[2]; 100 μM, 24 hours, enzyme method, control = 100%", "result": "78 ± 4", "unit": "p < 0.01 %"},
      {"measurement": "action on reduction of the cholesteryl ester content", "setting": "[2]", "result": "exerts an action"}
    ]}
  ]
}
